Experimental data: PubChem BioAssay AID179 (DTP/NCI, 2004)
“And” between values parts separate entries of the source, which are not always exact repeats. Equal values may be shown once. The source made the active and inactive calls.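 Rule for the calls: active = compounds giving half or more protection of infected cells from virus-caused growth loss, again on retest; inactive = the rest.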 Where a SMILES comes first, the peptide text is derived from it.

Test system: CEM cells HIV-1 protection, formazan growth assay
Test: NCI AIDS Antiviral Assay
Details: for IC50: measured here: growth of uninfected CEM cells
Method in brief: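 CEM (human) cells, HIV-1 infected vs uninfected, 5-point dosing, formazan growth read-out. Retest threshold 50% protection.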

| SMILES | EC50 [µM] | IC50 | outcome |
| --- | --- | --- | --- |
| CSCCC(N)C(=O)NCCS(=O)(=O)O (centres undefined) | > 200 | > 200 µM |  |
| Oc1cccc2c1NC1=C(CCC/C1=C\c1ccccc1)C2 | > 9.33 | > 9.33 µM |  |
| O=[N+]([O-])/C(C=Nc1ccccc1)=C/Nc1ccccc1 | > 200 | 105 µM |  |
| OCC1OC(n2cnc3c(=S)nc[nH]c32)C(O)C1O (centres undefined) | > 871 | 617 µM |  |
| COc1ccc2c(c1)N(S(=O)(=O)c1ccc(C)cc1)CC1=C2CCP1(C)=O (centres undefined) |  |  | inactive |
| CCCNc1c(Cl)cc(Cl)c2[nH]c3ccccc3c(=O)c12 | > 200 | 23.4 µM |  |
| Cc1sc2ccc3ccccc3c2[n+]1C | > 200 | 45.7 µM |  |
| O=C1O/C(=C(/Cl)c2c3ccccc3cc3ccccc23)c2ccccc21 | > 200 | 10.2 µM |  |
| CCOC(=O)C(NC(=O)c1cccc(Cl)c1)(N1CCN(c2cc3c(cc2F)c(=O)c(C(=O)O)cn3CC)CC1)C(F)(F)F (centres undefined) | > 200 | 0.339 µM |  |
| CCOC1(O)C(=O)c2ccccc2OC1(OCC)c1ccccc1 (centres undefined) | > 200 | 26.9 µM |  |
| O=C1[C@@H]2C(c3c(Cl)cccc3Cl)=NO[C@@H]2C(=O)N1c1ccc(Cc2ccc(N3C(=O)[C@H]4C(c5c(Cl)cccc5Cl)=NO[C@H]4C3=O)cc2)cc1 | > 35.5 | > 35.5 µM |  |
| CCCCCCCCCCCCCCCCOCC(Cl)CP(=O)(O)OP(=O)(O)OCC1OC(n2cnc3c(N)ncnc32)C(O)C1O (centres undefined) | > 100 | > 100 µM |  |
| CN1CCC/C1=N\c1scc(-c2ccc(Br)cc2)[n+]1-c1ccccc1 | > 38 | 5.75 µM |  |
| CC1(C)CCOC(=O)C(Cl)CC1Cl (centres undefined) | > 200 | > 200 µM |  |
| Cc1ccc2c(c1)C(O)(c1ccccc1)C(c1ccccc1)C(c1ccccc1)O2 (centres undefined) | > 200 | 6.92 µM |  |
| O=C1C2C3C=CC(O3)C2C(=O)N1/N=C/c1ccc2c(c1)OCO2 (centres undefined) | > 200 | > 200 µM |  |
| CCOC(=O)C(=O)c1c2cn(O)nc(OC)c-2nc1[N+](=O)[O-] | > 813 | 537 µM |  |
| O=c1nc2ccc3sc4ccccc4c(=O)c3n2c(=O)[nH]1 | > 200 | 110 µM |  |
| CS(=O)(=O)OCC1OC2OC3(CCCCC3)OC2C1OCc1ccccc1 (centres undefined) | > 200 | 105 µM |  |
| Clc1ccc2nc(CCSCCc3nc4ccc(Cl)cc4[nH]3)[nH]c2c1 |  |  | inactive |
| CCOC(=O)c1cn2ccccc2c(C(=O)c2cccnc2)c1=N | > 50.1 | > 50.1 µM |  |

| SMILES | EC50 [µM] | IC50 | outcome |
| --- | --- | --- | --- |
| NC(=O)C(NN=C1c2ccccc2-c2ccccc21)(c1ccccc1)c1ccccc1 | > 200 | 28.2 µM |  |
| CN1CCCCC(C(O)(c2ccccc2)c2ccccc2)C1=O (centres undefined) | > 115 | 0.363 µM |  |
| COc1ccccc1CN1CC(C)N(N=Cc2c3c(O)c4c(O)c(C)c5c(c4c2O)C(=O)C(C)(O/C=C/C(OC)C(C)C(OC(C)=O)C(C)C(O)C(C)C(O)C(C)/C=C/C=C(\C)C(=O)N3)O5)C(C)C1 (centres undefined) | > 200 | 7.76 µM |  |
| O=C1C(c2ccccc2)=C2C(=C1c1ccccc1)c1cccc3cccc2c13 |  |  | inactive |
| Cc1ccc2c(c1)CC1(Cc3c(C)cccc3C1=O)C2=O (centres undefined) | > 200 | > 200 µM |  |
| CC(=O)[O-].O=S(=O)(Nc1ncccn1)c1ccc(N=Cc2ccccc2O)cc1.O=S(=O)(Nc1ncccn1)c1ccc(N=Cc2ccccc2O)cc1.[Co+2] | > 200 | 39.8 µM |  |
| CC(C)(C)[Si](C)(C)OCc1cccc(OCCOc2cccc(CO[Si](C)(C)C(C)(C)C)c2[N+](=O)[O-])c1[N+](=O)[O-] | > 50.1 | > 50.1 µM |  |
| CC(=O)N(CC1CCCN(C)C1)C1C2CC3CC(C2)CC1C3 (centres undefined) | > 117 | 46.8 µM |  |
| COc1cccc(OC)c1/C=N\N1C(=O)c2ccccc2C1=O | > 115 | 12 µM |  |
| CC(=O)C1C(=O)NC(=O)C1=O (centres undefined) | > 1620 | > 1620 µM |  |
| O=C(O)[C@H](CCC[C@H]1C(=O)O[C@H](c2ccccc2)[C@H](c2ccccc2)N1C(=O)OCc1ccccc1)N[C@@H](c1ccccc1)[C@H](O)c1ccccc1 | > 89.1 | 77.6 µM |  |
| CCCCNc1nc(C(F)(F)F)nc2nc[nH]c12 | > 200 | > 200 µM |  |
| Nc1ncnc2c1ncn2C(CO)OC(CO)CCP(=O)(O)O (centres undefined) | > 100 | > 100 µM |  |
| CSC1CC2C(CC1(C)O)C2(C)C (centres undefined) | > 200 | 162 µM and > 200 µM |  |
| COc1ccc(/C=N/NC(=O)c2sc(=S)n(-c3ccccc3)c2N)cc1 | > 9.77 | > 9.77 µM |  |
| C(=Nc1ccc(C2=NCCN2)cc1)c1ccc(C=Nc2ccc(C3=NCCN3)cc2)cc1 | > 200 | 11.7 µM |  |
| Cc1ccc2cc(NC(=O)CBr)c3ccc(C)nc3c2n1 | > 2 | 0.955 µM |  |
| CCOC(=O)C1=C(C)C2C=C(c3cccs3)CC(c3ccc(Cl)cc3)=C2OC1=O (centres undefined) | > 200 | 91.2 µM |  |
| COC(=O)C(=O)C(C(=O)C(=O)Nc1ccc(C)cc1C)c1nc2ccccc2[nH]c1=O (centres undefined) | > 23.4 | > 23.4 µM |  |
| O=C(Cc1ccccc1)N/N=C(/c1nc2ccc([N+](=O)[O-])cc2[nH]c1=O)C(O)c1ccccc1Cl (centres undefined) | > 72.4 | > 72.4 µM |  |
| Cn1cnc([N+](=O)[O-])c1Sc1n[nH]c(-c2ccc(Cl)cc2)n1 | > 107 | 6.76 µM |  |

| SMILES | EC50 [µM] | IC50 | outcome |
| --- | --- | --- | --- |
| O=C(NC(CO)CO)c1ccc2cc(C(=O)N3CC(CCl)c4ccc([N+](=O)[O-])cc43)[nH]c2c1 (centres undefined) | > 200 | 53.7 µM |  |
| O=C1c2cc(Br)ccc2OC2CCON12 (centres undefined) |  |  | inactive |
| FC(F)(F)c1cc(Cl)c2ccc3ccccc3c2n1 |  | 12.6 µM | inactive |
| Cc1ccc(SSCC(O)C(O)CSSc2ccc(C)cc2)cc1 (centres undefined) |  |  | inactive |
| COc1ccc(C(=O)/C=C/c2ccc(OCCCCCCCCCCOc3ccc(/C=C/C(=O)c4ccc(OC)c(OC)c4)cc3)cc2)c(OC)c1 |  |  | inactive |
| CCOC(=O)C1C(c2ccc([N+](=O)[O-])cc2)NC(c2ccc([N+](=O)[O-])cc2)C(C(=O)OC)S1(=O)=O (centres undefined) | > 3.98 | > 3.98 µM |  |
| CN(c1ccccc1)c1c(-c2ccccc2)c(=O)oc2c1ccc1occc12 |  |  | inactive |
| N#CC(NNC(=O)c1ccccc1O)c1ccccc1 (centres undefined) | > 9.33 | 0.339 µM |  |
| O=C1CN(C(=O)c2ccccc2)Cc2[nH]c3ccccc3c21 |  |  | inactive |
| CN1C2CCCC1CC(=O)NC2 (centres undefined) | > 1480 | > 1480 µM |  |
| O=C1CC(c2ccc([N+](=O)[O-])cc2)=Nc2ccccc2N1 | > 200 | > 200 µM |  |
| O=C(Oc1ccccc1)C(c1ccccc1)c1ccccc1 | > 102 | > 102 µM |  |
| COc1cccc2c1C(CO)N1C(C#N)C3CC(C(=O)O)C(C1C2)N3C (centres undefined) | > 0.355 | 0.0372 µM |  |
| O=c1cn[nH]c2c(F)cccc12 | > 646 | 617 µM |  |
| CC(C)C(=O)Nc1nc2nc[nH]c2c(=O)[nH]1 | > 85.1 | > 85.1 µM |  |
| NC1(C(=O)O)CSSC1 |  | 10.7 µM and 8.71 µM |  |
| C=C1C(=O)[C@]23C[C@H]1CC[C@H]2[C@@]12CO[C@@H](O)[C@@H]1C(C)(C)[C@@H](O)C[C@@H]2OC3=O | > 692 | 26.3 µM |  |
| Cc1c2n(c(=O)[nH]c1=O)C1OC(CO)C(O2)C1O (centres undefined) | > 200 | > 200 µM |  |
| CCOC(=O)Cn1c2ccccc2c(=O)c2cc(C)c(C)c(C#N)c21 | > 21.4 | > 21.4 µM |  |
| Cc1c(-c2cnccn2)ssc1=S | > 200 | 102 µM |  |
| CCOC(=O)c1cnc2cc3cccccc3n2c1=O |  |  | inactive |

| SMILES | EC50 [µM] | IC50 | outcome |
| --- | --- | --- | --- |
| O=c1oc2ccccc2n1CCCn1c(=O)oc2ccccc21 | > 200 | > 200 µM |  |
| Clc1nc(Cl)nc(Nc2cccc3ccccc23)n1 | > 200 | 107 µM |  |
| CCc1c(C)c(C#N)c(=S)n(C2OC(COC(C)=O)C(OC(C)=O)C(OC(C)=O)C2OC(C)=O)c1-c1ccccc1 (centres undefined) | > 200 | 102 µM |  |
| Cc1c(N=Nc2ccc(Br)cc2)c(=O)n(-c2ccccc2)c(=O)n1-c1nc2ccccc2[nH]1 | > 89.1 | 85.1 µM |  |
| CC(=O)/C(=C/n1c(=S)sc2ccccc21)C(=O)Nc1ccccc1 | > 200 | 138 µM |  |
| CC(=O)Nc1nc(C)c(CCC#N)c(SC(=N)N)n1 | > 200 | > 200 µM |  |
| O=S1(=O)c2ccccc2N(c2ccccc2)C2=NCCN21 | > 120 | > 120 µM |  |
| CC1(C)OC(=O)C(=Cc2ccc(Br)cc2)C(=O)O1 | > 417 | 257 µM |  |
| CSc1nc(=O)c(C#N)c(-c2ccccc2)n1C1OC(COC(C)=O)C(OC(C)=O)C(OC(C)=O)C1OC(C)=O (centres undefined) | > 200 | 93.3 µM |  |
| CCOC(=O)CCCNC(=O)CCCCC(=O)N(C)C | > 200 | > 200 µM |  |
| CC(NC(=O)CNC(=O)C(N)CO)C(=O)NC(CCC(=O)O)C(=O)NC(CCCCN)C(=O)N1CCCC1C(=O)NC(CCC(=O)O)C(=O)NC(CCCCN)C(=O)NC(CCC(=O)O)C(=O)NC(CCCN=C(N)N)C(=O)NC(CO)C(=O)NC(Cc1ccc(O)cc1)C(=O)NC(C)C(=O)NC(Cc1cnc[nH]1)C(=O)NC(CO)C(=O)O (centres undefined) (H-SGAEKPEKERSYAHS-OH; configuration not given here) | > 100 | > 100 µM |  |
| FC(F)(F)C(F)(F)/C(=N/Nc1ccccc1)SS/C(=N\Nc1ccccc1)C(F)(F)C(F)(F)F | > 200 | 3.16 µM |  |
| COc1cc(C2c3cc4c(cc3C(=O)C3CCC(=O)N32)OCO4)cc(OC)c1O (centres undefined) | > 50.1 | 27.5 µM |  |
| C1=NC(N(Cc2ccccc2)Cc2ccccc2)N(Cc2ccccc2)N1 (centres undefined) | > 52.5 | 32.4 µM |  |
| O=C(Nc1ccc(S(=O)(=O)Nc2ccc(N=Nc3ccccc3)cc2)cc1)C(SC1=NC=NC2=NC=NC21)SC1=NC=NC2=NC=NC21 (centres undefined) | > 20 | 3.16 µM |  |
| COc1cc(O)c2c(=O)c3c(C)cccc3n(C)c2c1 | > 200 | 72.4 µM |  |
| Nc1c(C(=O)O)c2nc3c(CO)cccc3oc-2cc1=O | > 200 | 2.14 µM |  |
| CCc1cc2c(O)c(c1)Cc1cc(CC)cc(c1O)Cc1cc(CC)cc(c1O)Cc1cc(CC)cc(c1O)Cc1cc(CC)cc(c1O)Cc1cc(CC)cc(c1O)Cc1cc(CC)cc(c1O)C2 | > 10 | > 10 µM |  |
| COc1ccc(/C=C/C(=O)c2sc(NC(=S)NC(=O)c3ccccc3F)nc2C)cc1OC | > 74.1 | > 74.1 µM |  |
